Results as given in patent publication US12110295B2, “WD40 repeat domain protein 5 (WDR5) degradation/disruption compounds and methods of use” (Icahn School of Medicine at Mount Sinai, priority 2018, dated 2024).

Biological target: WDR5 (Homo sapiens, UniProt P61964)
Test: Screening of putative WDR5 degraders by Western blot in MV4;11 and/or MIAPACA2 cells
Type: cell-based
Parameters: After WDR5 degrader treatment, cells were collected and lysed; endogenous in cells; host or cells: MV4;11 and/or MIAPACA2
Conditions: summary of screening, FIGS. 6-10
Protocol: MV4;11 cells were treated with DMSO or indicated compounds at 0.1 μM and 0.5 μM for 18 hours. […]. MIAPACA2 cells were treated with DMSO or indicated compounds at 0.5 μM and 1.0 μM for 18 hours.
MIAPACA2 cells were treated with DMSO or indicated compounds at 0.1 μM and 0.5 μM for 18 hours.
MIAPACA2 cells were treated with DMSO or indicated compounds at 0.5 μM and 1.0 μM or at 1.0 μM and 10 μM for 18 hours.
MV4;11 cells were treated with DMSO or indicated compounds at 0.1 μM and 1.0 μM for 18 hours.
WDR5 degraders were dissolved in DMSO and DMSO with no degraders was used as the control. 1×10^6 MV4;11 cells or 1×10^5 MIAPACA2 or 2×10^5 Hela cells were seeded in 2 mL medium for each well in […].
For prescreening of all the compounds, each test compound was added to the medium at indicated concentrations. After 18 h treatment, cells were collected.
After WDR5 degrader treatment, cells were collected and lysed. Total cell lysates were used for western blot. The following primary antibodies were used: WDR5 (Santa Cruz), vinculin (Cell Signaling Technology), tubulin (Cell Signaling Technology), GAPDH (Santa Cruz). Blots were imaged using fluorescence-labeled secondary antibodies on ChemiDoc™ Imaging Systems.

SMILES | effective degradation of WDR5 in MV4;11 and/or MIAPACA2 cells
C[C@@H]1CN(c2ccc(-c3ccc(C(=O)NCCCCCCCCNc4cccc5c4C(=O)N(C4CCC(=O)NC4=O)C5=O)cc3F)cc2NC(=O)c2c[nH]c(=O)cc2C(F)(F)F)C[C@H](C)N1C (stereo partly drawn) [XF056-186, N-(4′-((8-((2-(2,6-dioxopiperidin-3-yl)-1,3-dioxoisoindolin-4-yl)amino)octyl)carbamoyl)-2′-fluoro-4-((3R,5S)-3,4,5-trimethylpiperazin-1-yl)-[1,1′-biphenyl]-3-yl)-6-oxo-4-(trifluoromethyl)-1,6-dihydropyridine-3-carboxamide] | able to effectively degrade WDR5
C[C@@H]1CN(c2ccc(-c3cc(CN4CCN(CCNC(=O)CCOCCOCCOCCOCCNc5cccc6c5C(=O)N(C5CCC(=O)NC5=O)C6=O)CC4)ccc3F)cc2NC(=O)c2c[nH]c(=O)cc2C(F)(F)F)C[C@H](C)N1C (stereo partly drawn) [XF078-28, N-(5′-((4-(1-((2-(2,6-dioxopiperidin-3-yl)-1,3-dioxoisoindolin-4-yl)amino)-15-oxo-3,6,9,12-tetraoxa-16-azaoctadecan-18-yl)piperazin-1-yl)methyl)-2′-fluoro-4-((3S,5R)-3,4,5-trimethylpiperazin-1-yl)-[1,1′-biphenyl]-3-yl)-6-oxo-4-(trifluoromethyl)-1,6-dihydropyridine-3-carboxamide] | able to effectively degrade WDR5
Cc1ncsc1-c1ccc(CNC(=O)[C@@H]2C[C@@H](O)CN2C(=O)[C@@H](NC(=O)CCCCCC(=O)N2CC=C(c3cc(NC(=O)c4c[nH]c(=O)cc4C(F)(F)F)c(N4C[C@@H](C)N(C)[C@@H](C)C4)cc3F)CC2)C(C)(C)C)cc1 [XF078-42, N-(4-fluoro-5-(1-(7-(((S)-1-((2S,4R)-4-hydroxy-2-((4-(4-methylthiazol-5-yl)benzyl)carbamoyl)pyrrolidin-1-yl)-3,3-dimethyl-1-oxobutan-2-yl)amino)-7-oxoheptanoyl)-1,2,3,6-tetrahydropyridin-4-yl)-2-((3S,5R)-3,4,5-trimethylpiperazin-1-yl)phenyl)-6-oxo-4-(trifluoromethyl)-1,6-dihydropyridine-3-carboxamide] | able to effectively degrade WDR5
Cc1ncsc1-c1ccc(CNC(=O)[C@@H]2C[C@@H](O)CN2C(=O)[C@@H](NC(=O)CCOCCOCCOCCC(=O)N2CCN(Cc3cnc(N4CC=C(c5cc(NC(=O)c6c[nH]c(=O)cc6C(F)(F)F)c(N6C[C@@H](C)N(C)[C@@H](C)C6)cc5F)CC4)nc3)CC2)C(C)(C)C)cc1 [XF078-137, N-(4-fluoro-5-(1-(5-((4-((S)-15-((2S,4R)-4-hydroxy-2-((4-(4-methylthiazol-5-yl)benzyl)carbamoyl)pyrrolidine-1-carbonyl)-16,16-dimethyl-13-oxo-4,7,10-trioxa-14-azaheptadecanoyl)piperazin-1-yl)methyl)pyrimidin-2-yl)-1,2,3,6-tetrahydropyridin-4-yl)-2-((3S,5R)-3,4,5-trimethylpiperazin-1-yl)phenyl)-6-oxo-4-(trifluoromethyl)-1,6-dihydropyridine-3-carboxamide] | able to effectively degrade WDR5
Cc1ncsc1-c1ccc(CNC(=O)[C@@H]2C[C@@H](O)CN2C(=O)[C@@H](NC(=O)CCCCCCCCCC(=O)N2CCN(c3ncc(-c4cc(NC(=O)c5ccc(F)cc5C(F)(F)F)c(N5C[C@@H](C)N(C)[C@@H](C)C5)cc4F)cn3)CC2)C(C)(C)C)cc1 [XF078-115, (2S,4R)-1-((S)-2-(11-(4-(5-(2-fluoro-5-(4-fluoro-2-(trifluoromethyl)benzamido)-4-((3S,5R)-3,4,5-trimethylpiperazin-1-yl)phenyl)pyrimidin-2-yl)piperazin-1-yl)-11-oxoundecanamido)-3,3-dimethylbutanoyl)-4-hydroxy-N-(4-(4-methylthiazol-5-yl)benzyl)pyrrolidine-2-carboxamide] | able to effectively degrade WDR5
Cc1ncsc1-c1ccc(CNC(=O)[C@@H]2C[C@@H](O)CN2C(=O)[C@@H](NC(=O)CCCCC(=O)N2CC=C(c3cc(NC(=O)c4c[nH]c(=O)cc4C(F)(F)F)c(N4C[C@@H](C)N(C)[C@@H](C)C4)cc3F)CC2)C(C)(C)C)cc1 [XF078-41, N-(4-fluoro-5-(1-(6-(((S)-1-((2S,4R)-4-hydroxy-2-((4-(4-methylthiazol-5-yl)benzyl)carbamoyl)pyrrolidin-1-yl)-3,3-dimethyl-1-oxobutan-2-yl)amino)-6-oxohexanoyl)-1,2,3,6-tetrahydropyridin-4-yl)-2-((3S,5R)-3,4,5-trimethylpiperazin-1-yl)phenyl)-6-oxo-4-(trifluoromethyl)-1,6-dihydropyridine-3-carboxamide] | able to effectively degrade WDR5
Cc1ncsc1-c1ccc(CNC(=O)[C@@H]2C[C@@H](O)CN2C(=O)[C@@H](NC(=O)COCCOCCOCCOCCOCC(=O)N2CCN(Cc3cnc(N4CC=C(c5cc(NC(=O)c6c[nH]c(=O)cc6C(F)(F)F)c(N6C[C@@H](C)N(C)[C@@H](C)C6)cc5F)CC4)nc3)CC2)C(C)(C)C)cc1 [XF078-139, N-(4-fluoro-5-(1-(5-((4-((S)-19-((2S,4R)-4-hydroxy-2-((4-(4-methylthiazol-5-yl)benzyl)carbamoyl)pyrrolidine-1-carbonyl)-20,20-dimethyl-17-oxo-3,6,9,12,15-pentaoxa-18-azahenicosanoyl)piperazin-1-yl)methyl)pyrimidin-2-yl)-1,2,3,6-tetrahydropyridin-4-yl)-2-((3S,5R)-3,4,5-trimethylpiperazin-1-yl)phenyl)-6-oxo-4-(trifluoromethyl)-1,6-dihydropyridine-3-carboxamide] | able to effectively degrade WDR5
Cc1ncsc1-c1ccc(CNC(=O)[C@@H]2C[C@@H](O)CN2C(=O)[C@@H](NC(=O)CCCCCCCC(=O)N2CC=C(c3cc(NC(=O)c4c[nH]c(=O)cc4C(F)(F)F)c(N4C[C@@H](C)N(C)[C@@H](C)C4)cc3F)CC2)C(C)(C)C)cc1 [XF078-44, N-(4-fluoro-5-(1-(9-(((S)-1-((2S,4R)-4-hydroxy-2-((4-(4-methylthiazol-5-yl)benzyl)carbamoyl)pyrrolidin-1-yl)-3,3-dimethyl-1-oxobutan-2-yl)amino)-9-oxononanoyl)-1,2,3,6-tetrahydropyridin-4-yl)-2-((3S,5R)-3,4,5-trimethylpiperazin-1-yl)phenyl)-6-oxo-4-(trifluoromethyl)-1,6-dihydropyridine-3-carboxamide] | able to effectively degrade WDR5
Cc1ncsc1-c1ccc(CNC(=O)[C@@H]2C[C@@H](O)CN2C(=O)[C@@H](NC(=O)CCOCCOCCOCCC(=O)NCCN2CCN(Cc3ccc(F)c(-c4ccc(N5C[C@@H](C)N(C)[C@@H](C)C5)c(NC(=O)c5c[nH]c(=O)cc5C(F)(F)F)c4)c3)CC2)C(C)(C)C)cc1 [XF078-6, N-(2′-fluoro-5′-((4-((S)-18-((2S,4R)-4-hydroxy-2-((4-(4-methylthiazol-5-yl)benzyl)carbamoyl)pyrrolidine-1-carbonyl)-19,19-dimethyl-4,16-dioxo-7,10,13-trioxa-3,17-diazaicosyl)piperazin-1-yl)methyl)-4-((3S,5R)-3,4,5-trimethylpiperazin-1-yl)-[1,1′-biphenyl]-3-yl)-6-oxo-4-(trifluoromethyl)-1,6-dihydropyridine-3-carboxamide] | able to effectively degrade WDR5
Cc1ncsc1-c1ccc(CNC(=O)[C@@H]2C[C@@H](O)CN2C(=O)[C@@H](NC(=O)CCCCCCCCCC(=O)N2CC=C(c3cc(NC(=O)c4c[nH]c(=O)cc4C(F)(F)F)c(N4C[C@@H](C)N(C)[C@@H](C)C4)cc3F)CC2)C(C)(C)C)cc1 [XF078-46, N-(4-fluoro-5-(1-(11-(((S)-1-((2S,4R)-4-hydroxy-2-((4-(4-methylthiazol-5-yl)benzyl)carbamoyl)pyrrolidin-1-yl)-3,3-dimethyl-1-oxobutan-2-yl)amino)-11-oxoundecanoyl)-1,2,3,6-tetrahydropyridin-4-yl)-2-((3S,5R)-3,4,5-trimethylpiperazin-1-yl)phenyl)-6-oxo-4-(trifluoromethyl)-1,6-dihydropyridine-3-carboxamide] | able to effectively degrade WDR5
Cc1ncsc1-c1ccc(CNC(=O)[C@@H]2C[C@@H](O)CN2C(=O)[C@@H](NC(=O)COCCOCCOCCOCCOCC(=O)N2CCN(c3ncc(-c4cc(NC(=O)c5ccc(F)cc5C(F)(F)F)c(N5C[C@@H](C)N(C)[C@@H](C)C5)cc4F)cn3)CC2)C(C)(C)C)cc1 [XF078-106, (2S,4R)-1-((S)-2-(tert-butyl)-20-(4-(5-(2-fluoro-5-(4-fluoro-2-(trifluoromethyl)benzamido)-4-((3S,5R)-3,4,5-trimethylpiperazin-1-yl)phenyl)pyrimidin-2-yl)piperazin-1-yl)-4,20-dioxo-6,9,12,15,18-pentaoxa-3-azaicosanoyl)-4-hydroxy-N-(4-(4-methylthiazol-5-yl)benzyl)pyrrolidine-2-carboxamide] | able to effectively degrade WDR5
